Experimental findings from paper PMC3608355, “Amino Acid Derivatives as New Zinc Binding Groups for the Design of Selective Matrix Metalloproteinase Inhibitors” (Journal of Amino Acids, 2013) are described below.

Where a name gives a salt, the structure may show the parent alone. Read-outs that look alike come from different tables or passages of the source.

For data set [1], the target named is T1, MMP-2 (Homo sapiens, UniProt P08253).
T1 sequence (P08253 110-660): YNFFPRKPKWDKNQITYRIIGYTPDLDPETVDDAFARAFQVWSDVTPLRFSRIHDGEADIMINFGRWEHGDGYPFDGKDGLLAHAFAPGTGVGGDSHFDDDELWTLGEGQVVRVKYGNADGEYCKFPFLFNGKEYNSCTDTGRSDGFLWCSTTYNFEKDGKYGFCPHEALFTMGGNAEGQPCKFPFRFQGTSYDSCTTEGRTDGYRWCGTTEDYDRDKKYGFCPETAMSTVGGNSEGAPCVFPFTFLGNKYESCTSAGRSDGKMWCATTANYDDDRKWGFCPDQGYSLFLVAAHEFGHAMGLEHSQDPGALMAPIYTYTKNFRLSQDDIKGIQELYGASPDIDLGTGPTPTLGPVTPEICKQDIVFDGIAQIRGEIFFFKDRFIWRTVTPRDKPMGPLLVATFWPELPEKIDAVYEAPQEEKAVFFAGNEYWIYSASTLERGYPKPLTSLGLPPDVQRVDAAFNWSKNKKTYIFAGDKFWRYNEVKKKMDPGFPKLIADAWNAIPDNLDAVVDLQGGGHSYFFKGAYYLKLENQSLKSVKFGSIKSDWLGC

Data set [2] has as its target T1, MMP-2. Nature of the data set: biochemical.
Data set [3] addresses T2, MMP-1 (Homo sapiens, UniProt P03956).
T2 sequence (P03956 100-469): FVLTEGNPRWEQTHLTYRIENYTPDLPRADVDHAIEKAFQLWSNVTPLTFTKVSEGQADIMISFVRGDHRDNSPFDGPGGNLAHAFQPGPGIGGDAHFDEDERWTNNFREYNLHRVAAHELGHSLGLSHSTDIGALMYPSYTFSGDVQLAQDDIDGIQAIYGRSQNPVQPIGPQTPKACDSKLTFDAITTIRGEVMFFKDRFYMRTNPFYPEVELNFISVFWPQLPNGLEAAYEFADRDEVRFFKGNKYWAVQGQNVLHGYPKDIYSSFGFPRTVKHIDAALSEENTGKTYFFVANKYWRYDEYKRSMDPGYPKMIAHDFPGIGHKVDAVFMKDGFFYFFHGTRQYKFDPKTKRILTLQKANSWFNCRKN
Nature of the data set: MMP inhibition fluorometric assay, MMP-1. The note with it: for ΔG exp MMP-1: experimental binding energy from activity data, racemic mixture tested.

The target in data set [4] is MMP-8 (Homo sapiens, UniProt P22894). Description: MMP inhibition fluorometric assay, MMP-8. The note with it: for ΔG exp MMP-8: experimental binding energy from activity data, racemic mixture tested.
MMP-8, sequence (P22894 101-467): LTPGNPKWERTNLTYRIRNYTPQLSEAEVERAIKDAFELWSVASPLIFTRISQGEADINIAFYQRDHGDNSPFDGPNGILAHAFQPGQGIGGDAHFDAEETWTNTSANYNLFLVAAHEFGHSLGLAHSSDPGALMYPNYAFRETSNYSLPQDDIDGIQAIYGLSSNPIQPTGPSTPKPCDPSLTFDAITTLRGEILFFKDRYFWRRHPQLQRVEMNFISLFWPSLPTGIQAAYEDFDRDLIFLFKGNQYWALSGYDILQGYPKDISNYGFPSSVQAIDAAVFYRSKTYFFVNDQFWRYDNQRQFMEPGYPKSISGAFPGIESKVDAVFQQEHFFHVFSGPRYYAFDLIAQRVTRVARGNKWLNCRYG
Data set [5] deals with MMP-9 (Homo sapiens, UniProt P14780). Nature of the data set: MMP inhibition fluorometric assay, MMP-9. The note with it: for ΔG exp MMP-9: experimental binding energy from activity data, racemic mixture tested.
MMP-9, sequence (P14780 107-707 limits assumed): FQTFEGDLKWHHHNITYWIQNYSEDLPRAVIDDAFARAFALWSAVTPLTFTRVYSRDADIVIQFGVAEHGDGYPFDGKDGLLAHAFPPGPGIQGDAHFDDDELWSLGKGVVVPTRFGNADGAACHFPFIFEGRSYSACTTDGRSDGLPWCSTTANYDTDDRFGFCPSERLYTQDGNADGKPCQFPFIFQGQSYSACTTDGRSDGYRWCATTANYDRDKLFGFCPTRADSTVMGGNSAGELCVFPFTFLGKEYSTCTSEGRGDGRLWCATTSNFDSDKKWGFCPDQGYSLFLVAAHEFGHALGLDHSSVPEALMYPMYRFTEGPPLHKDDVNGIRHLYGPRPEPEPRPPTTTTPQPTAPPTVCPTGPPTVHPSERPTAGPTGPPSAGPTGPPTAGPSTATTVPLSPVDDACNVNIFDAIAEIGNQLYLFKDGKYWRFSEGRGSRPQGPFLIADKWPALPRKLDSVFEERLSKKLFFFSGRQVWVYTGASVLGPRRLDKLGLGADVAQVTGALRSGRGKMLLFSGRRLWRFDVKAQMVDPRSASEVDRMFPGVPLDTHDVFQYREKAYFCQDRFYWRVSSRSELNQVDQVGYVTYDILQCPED
Setting [6] is: experimental binding energy from activity data, chiral compounds tested as racemic mixture.
The mark [7] stands for this setting: ratio of IC50 values versus 25a.

Consider `NC(CO)CO` [Compound 1a, 2-aminopropane-1,3-diol], for which, in data set [1] (setting [6]), the “ΔG exp (binding energy toward MMP-2)” value is -4.837 kcal. The IC50 in data set [2] was 280 ± 24 µM.

As for `N#CC[C@@H](N)CO.O=C(O)C(F)(F)F` [1i R], the “ΔG exp (binding energy toward MMP-2)” value in data set [1] (setting [6]) is -4.210 kcal.

Regarding `Cl.O=S(=O)(N[C@H](CO)Cc1c[nH]cn1)c1ccc(Oc2ccccc2)cc1` [25e S], the “ΔG exp (binding energy toward MMP-2)” value in data set [1] (setting [6]) was -5.069 kcal. In addition, in data set [3], the “ΔG exp MMP-1” value was -4.524 kcal. Also, the “ΔG exp MMP-8” value in data set [4] was -4.740 kcal. For the same compound, in data set [5], the “ΔG exp MMP-9” value is -5.042 kcal.

In data set [2], `[N-]=[N+]=NCC(N)CS` (centres unmarked) [Compound 1j, 2-Amino-3-azidopropane-1-thiol Trifluoroacetate] registered an IC50 of 520 ± 57 µM.

Take `O=S(=O)(N[C@@H](CO)CS)c1ccc(Oc2ccccc2)cc1` [25d S]: the “ΔG exp (binding energy toward MMP-2)” value in data set [1] (setting [6]) is -5.396 kcal. In data set [3], the “ΔG exp MMP-1” value was -4.224 kcal. The “ΔG exp MMP-8” value in data set [4] was -6.870 kcal. Besides, the “ΔG exp MMP-9” value in data set [5] is -6.705 kcal.

For `NC(CS)Cc1c[nH]cn1` (centres unmarked) (as salt: TFA) [Compound 1g], the melting point lay in the range of 196 to 198 °C.

In the case of `NC(CO)Cc1c[nH]cn1` (centres unmarked) [Compound 1e, 2-Amino-3-(1H-imidazol-4-yl)propan-1-ol Ditrifluoroacetate], the half-inhibitory concentration (IC50) in data set [2] is 450 ± 23 µM.

On to `N[C@@H](CO)Cc1c[nH]cn1.O=C(O)C(F)(F)F.O=C(O)C(F)(F)F` [1e R], for which the “ΔG exp (binding energy toward MMP-2)” value in data set [1] (setting [6]) is -4.565 kcal.

For `N[C@@H](CO)CS.O=C(O)C(F)(F)F` [1d S], the “ΔG exp (binding energy toward MMP-2)” value in data set [1] (setting [6]) is -4.319 kcal.

Regarding `N#CC[C@@H](N)CS.O=C(O)C(F)(F)F` [1h R], the “ΔG exp (binding energy toward MMP-2)” value in data set [1] (setting [6]) is -4.497 kcal.

Turning to `NC(CS)CS.O=C(O)C(F)(F)F` [Compound 1f, 2-Aminopropane-1,3-dithiol Trifluoroacetate], the “ΔG exp (binding energy toward MMP-2)” value in data set [1] was -4.333 kcal. Besides, the IC50 in data set [2] is 666 ± 90 µM.

With `NC(CO)CS` (centres unmarked) [Compound 1d, 2-Amino-3-mercaptopropan-1-ol Trifluoroacetate], in data set [2], inhibition was half-maximal at 674 ± 88 µM (IC50).

In turn, `[N-]=[N+]=NCC(N)Cc1c[nH]cn1` (centres unmarked) [Compound 1l, 1-Azido-3-(1H-imidazol-4-yl)propan-2-amine Ditrifluoroacetate] came in with an IC50 in data set [2] of 480 ± 25 µM.

With `O=S(=O)(NC(CO)CS)c1ccc(Oc2ccccc2)cc1` (centres unmarked) [Compound 25d, N-(1-Hydroxy-3-mercaptopropan-2-yl)-4-phenoxybenzenesulfonamide], the IC50 was 110 ± 10 µM in data set [2], 819 ± 116 µM in data set [3], 9.1 ± 2.3 µM in data set [4] and 12 ± 4 µM in data set [5]. The “fold more potent than 25a on MMP-8” value in data set [4] (setting [7]) was determined as 10 fold. Further, the “fold more potent than 25a on MMP-9” value in data set [5] (setting [7]) was 13 fold.

For `N#CC[C@H](N)CS.O=C(O)C(F)(F)F` [1h S], the “ΔG exp (binding energy toward MMP-2)” value in data set [1] (setting [6]) was -4.497 kcal.

Turning to `O=S(=O)(N[C@H](CO)CS)c1ccc(Oc2ccccc2)cc1` (racemic) [25d R], the “ΔG exp (binding energy toward MMP-2)” value in data set [1] (setting [6]) was -5.396 kcal. In addition, the “ΔG exp MMP-1” value in data set [3] was -4.224 kcal. Also, the “ΔG exp MMP-8” value in data set [4] was -6.870 kcal. The “ΔG exp MMP-9” value in data set [5] was -6.705 kcal.

In data set [2], `N#CCC(N)CS` (centres unmarked) [Compound 1h, 3-Amino-4-mercaptobutanenitrile Trifluoroacetate] came in with an IC50 of 500 ± 49 µM.

For the compound `O=C(O)C(F)(F)F.O=C(O)C(F)(F)F.[N-]=[N+]=NC[C@@H](N)Cc1c[nH]cn1` [1l S], the “ΔG exp (binding energy toward MMP-2)” value in data set [1] (setting [6]) is -4.524 kcal.

As to `N[C@H](CO)Cc1c[nH]cn1.O=C(O)C(F)(F)F.O=C(O)C(F)(F)F` [1e S], in data set [1] (setting [6]), the “ΔG exp (binding energy toward MMP-2)” value was -4.565 kcal.

In the case of `N#CC[C@H](N)CO.O=C(O)C(F)(F)F` [1i S], the “ΔG exp (binding energy toward MMP-2)” value in data set [1] (setting [6]) is -4.210 kcal.

Consider `O=S(=O)(NC(CO)Cc1c[nH]cn1)c1ccc(Oc2ccccc2)cc1` (centres unmarked) [Compound 25e, N-(1-Hydroxy-3-(1H-imidazol-4-yl)propan-2-yl)-4-phenoxybenzenesulfonamide Hydrochloride], for which the IC50 in data set [2] amounted to 190 ± 8.7 µM; in data set [3], 480 ± 30 µM; in data set [4] it was 330 ± 21 µM; in data set [5], 200 ± 15 µM.

For `Cl.O=S(=O)(N[C@@H](CO)Cc1c[nH]cn1)c1ccc(Oc2ccccc2)cc1` (racemic) [25e R], in data set [1] (setting [6]), the “ΔG exp (binding energy toward MMP-2)” value is -5.069 kcal. Besides, the “ΔG exp MMP-1” value in data set [3] was -4.524 kcal. Besides, the “ΔG exp MMP-8” value in data set [4] was -4.740 kcal. The “ΔG exp MMP-9” value in data set [5] is -5.042 kcal.

Regarding `N#CCC(N)CO.O=C(O)C(F)(F)F` (centres unmarked) [Compound 1i, 3-Amino-4-hydroxybutanenitrile Trifluoroacetate], the melting point is 131 to 133 °C. The compound also yielded a half-inhibitory concentration (IC50) in data set [2] of 807 ± 98 µM.

Regarding `CC(=O)NO` [AHA, acetohydroxamic acid, reference compound], the concentration for half-maximal inhibition (IC50) in data set [1] (read-out: IC50 (μM ± SD), enzymatic inhibition of MMP-2, catalytic domain of MMP-2, ZBG library, value ± SD) came to 10000 ± 630 µM.

On to `N#CCC(N)CC#N.O=C(O)C(F)(F)F` [Compound 1b, 3-Aminopentanedinitrile Trifluoroacetate], for which, in data set [1], the “ΔG exp (binding energy toward MMP-2)” value is -4.428 kcal. Also, the IC50 in data set [2] turned out to be 560 ± 52 µM.

For the compound `O=S(=O)(NC(CO)CO)c1ccc(Oc2ccccc2)cc1` [Compound 25a, N-(1,3-Dihydroxypropan-2-yl)-4-phenoxybenzenesulfonamide], the “ΔG exp (binding energy toward MMP-2)” value in data set [1] (setting [6]) is -5.655 kcal. The IC50 stood at 71 ± 1.9 µM in data set [2], 1030 ± 160 µM in data set [3], 98 ± 8 µM in data set [4] and 160 ± 15 µM in data set [5]. Also, the “ΔG exp MMP-1” value in data set [3] was -4.074 kcal. Further, the “ΔG exp MMP-8” value in data set [4] was -5.460 kcal. Besides, in data set [5], the “ΔG exp MMP-9” value was -5.178 kcal.

Regarding `N[C@H](CO)CS.O=C(O)C(F)(F)F` [1d R], the “ΔG exp (binding energy toward MMP-2)” value in data set [1] (setting [6]) is -4.319 kcal.

Consider `O=C(O)C(F)(F)F.O=C(O)C(F)(F)F.[N-]=[N+]=NC[C@H](N)Cc1c[nH]cn1` [1l R], for which the “ΔG exp (binding energy toward MMP-2)” value in data set [1] (setting [6]) is -4.524 kcal.

What is called IC50 is the concentration needed to halve the response being measured. In general, melting point refers to the temperature of the solid-liquid transition.
